Activity calls are given as the source filed them. The rule behind the calls is not given here.
Key:
[1] = molecular target: T1, von Hippel-Lindau disease tumor suppressor/Casein kinase I isoform delta (Homo sapiens, UniProt P48730+P40337); experiment: PROTAC activity at VHL/full length N-terminal Nano-luc fused CK1 delta (unknown origin) transfected in HEK293T cells incubated for 2 hrs followed by substrate addition by NanoBRET target engagement assay; type: cell-based
Target sequence in this assay (P40337 whole entry, looked up, the tested form may be a part, canonical isoform): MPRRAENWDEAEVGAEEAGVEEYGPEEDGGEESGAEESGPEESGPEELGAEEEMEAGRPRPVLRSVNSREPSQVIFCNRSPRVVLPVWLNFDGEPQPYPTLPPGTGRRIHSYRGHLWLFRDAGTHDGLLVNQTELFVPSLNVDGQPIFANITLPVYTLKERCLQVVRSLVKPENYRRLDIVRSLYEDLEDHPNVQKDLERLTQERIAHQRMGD
Target sequence in this assay (P48730 whole entry, looked up, the tested form may be a part, canonical isoform): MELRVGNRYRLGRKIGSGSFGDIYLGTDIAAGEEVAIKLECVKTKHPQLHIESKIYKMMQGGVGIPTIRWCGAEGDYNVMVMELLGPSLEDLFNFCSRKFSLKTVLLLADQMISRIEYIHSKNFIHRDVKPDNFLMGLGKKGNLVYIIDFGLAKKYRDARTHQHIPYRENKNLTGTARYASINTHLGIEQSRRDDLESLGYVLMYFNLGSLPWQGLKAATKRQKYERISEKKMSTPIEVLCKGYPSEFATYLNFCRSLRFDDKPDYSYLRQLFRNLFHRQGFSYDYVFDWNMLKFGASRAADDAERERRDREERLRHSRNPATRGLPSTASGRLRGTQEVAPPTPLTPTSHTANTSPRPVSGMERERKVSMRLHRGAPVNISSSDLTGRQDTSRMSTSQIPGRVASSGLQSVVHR

[2] = molecular target: T1, von Hippel-Lindau disease tumor suppressor/Casein kinase I isoform delta; experiment: PROTAC activity at VHL/Hibit-fused CK1 delta in human MV4-11 cells assessed as degradation of CK1-delta incubated for 6 hrs by Nano-Glo HiBiT assay relative to control; type: cell-based
Target sequence in this assay (P40337 whole entry, looked up, the tested form may be a part, canonical isoform): as the sequence (P40337 whole entry, looked up, the tested form may be a part, canonical isoform) above
Target sequence in this assay (P48730 whole entry, looked up, the tested form may be a part, canonical isoform): as the sequence (P48730 whole entry, looked up, the tested form may be a part, canonical isoform) above

[3] = molecular target: T1, von Hippel-Lindau disease tumor suppressor/Casein kinase I isoform delta; experiment: PROTAC activity at VHL/Hibit-fused CK1 delta in human MV4-11 cells assessed as degradation of CK1-delta incubated for 6 hrs by Nano-Glo HiBiT assay; type: cell-based
Target sequence in this assay (P48730 whole entry, the tested form may be a part, canonical isoform): as the sequence (P48730 whole entry, looked up, the tested form may be a part, canonical isoform) above
Target sequence in this assay (P40337 whole entry, the tested form may be a part, canonical isoform): as the sequence (P40337 whole entry, looked up, the tested form may be a part, canonical isoform) above

[4] = molecular target: T2, von Hippel-Lindau disease tumor suppressor/Casein kinase I isoform alpha (Homo sapiens) (UniProt P48729+P40337); experiment: PROTAC activity at VHL/Hibit-fused CK1 alpha in human MV4-11 cells assessed as degradation of CK1-alpha incubated for 6 hrs by Nano-Glo HiBiT assay relative to control; type: cell-based
T2 sequence (P40337 whole entry, looked up, the tested form may be a part, canonical isoform): as above
T2 sequence (P48729 whole entry, looked up, the tested form may be a part, canonical isoform): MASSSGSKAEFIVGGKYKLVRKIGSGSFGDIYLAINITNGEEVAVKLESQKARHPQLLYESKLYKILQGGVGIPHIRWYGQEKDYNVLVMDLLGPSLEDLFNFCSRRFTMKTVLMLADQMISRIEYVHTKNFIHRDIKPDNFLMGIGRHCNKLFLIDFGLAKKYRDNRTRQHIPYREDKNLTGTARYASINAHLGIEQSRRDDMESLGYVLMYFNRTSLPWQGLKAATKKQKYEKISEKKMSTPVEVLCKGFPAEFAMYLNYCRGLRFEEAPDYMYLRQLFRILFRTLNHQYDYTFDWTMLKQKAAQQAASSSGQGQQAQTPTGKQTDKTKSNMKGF

[5] = molecular target: T2, von Hippel-Lindau disease tumor suppressor/Casein kinase I isoform alpha (Homo sapiens); experiment: PROTAC activity at VHL/CK1 alpha (unknown origin) endogenously expressed in HEK293 cells assessed as degradation of CK1-alpha at 10 to 30 uM incubated for 6 hrs by Western blot analysis; type: cell-based; conditions: dose 10-30 µM
[6] = molecular target: T3, von Hippel-Lindau disease tumor suppressor/Casein kinase I isoform epsilon (Homo sapiens) (UniProt P49674+P40337); experiment: PROTAC activity at VHL/Hibit-fused CK1 epsilon in human MV4-11 cells assessed as degradation of CK1 epsilon at 5 to 10 uM incubated for 6 hrs by Western blot analysis; type: cell-based; conditions: dose 5-10 µM
T3 sequence (P40337 whole entry, looked up, the tested form may be a part, canonical isoform): as the sequence (P40337 whole entry, looked up, the tested form may be a part, canonical isoform) above
T3 sequence (P49674 whole entry, looked up, the tested form may be a part, canonical isoform): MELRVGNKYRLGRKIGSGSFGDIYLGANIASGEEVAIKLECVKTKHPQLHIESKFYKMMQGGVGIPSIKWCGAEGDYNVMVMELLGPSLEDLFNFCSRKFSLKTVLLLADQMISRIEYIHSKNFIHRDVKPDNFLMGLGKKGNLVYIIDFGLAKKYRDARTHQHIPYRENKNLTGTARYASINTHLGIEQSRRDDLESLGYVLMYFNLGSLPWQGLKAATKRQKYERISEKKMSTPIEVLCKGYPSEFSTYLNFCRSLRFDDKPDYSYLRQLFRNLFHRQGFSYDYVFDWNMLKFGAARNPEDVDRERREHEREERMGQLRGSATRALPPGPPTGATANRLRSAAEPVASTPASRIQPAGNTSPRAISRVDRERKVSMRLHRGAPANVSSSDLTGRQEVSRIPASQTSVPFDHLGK

[7] = molecular target: T1, von Hippel-Lindau disease tumor suppressor/Casein kinase I isoform delta; experiment: PROTAC activity at VHL/CK1 delta in HEK293 cells assessed as induction of degradation of CK1 delta by measuring maximum efficacy at 5 to 10 uM measured after 6 hrs by Western blot analysis relative to control; type: cell-based; conditions: dose 5-10 µM
Target sequence in this assay (P40337 whole entry, looked up, the tested form may be a part, canonical isoform): as the sequence (P40337 whole entry, looked up, the tested form may be a part, canonical isoform) above
Target sequence in this assay (P48730 whole entry, looked up, the tested form may be a part, canonical isoform): as the sequence (P48730 whole entry, looked up, the tested form may be a part, canonical isoform) above

[8] = molecular target: T3, von Hippel-Lindau disease tumor suppressor/Casein kinase I isoform epsilon (Homo sapiens); experiment: PROTAC activity at VHL/CK1 epsilon in HEK293 cells assessed as induction of degradation of CK1 epsilon by measuring maximum efficacy at 5 to 10 uM measured after 6 hrs by Western blot analysis relative to control; type: cell-based; conditions: dose 5-10 µM
[9] = system: MV4-11; experiment: Cytotoxicity in human MV4-11 cells at >10 uM measured after 72 hrs by alamar blue assay; type: functional, cell-based
[10] = molecular target: T2, von Hippel-Lindau disease tumor suppressor/Casein kinase I isoform alpha (Homo sapiens); experiment: PROTAC activity at VHL/CK1 alpha in HEK293 cells assessed as induction of degradation of CK1 alpha at high concentration measured after 6 hrs by Western blot analysis relative to control; type: cell-based
[11] = molecular target: T3, von Hippel-Lindau disease tumor suppressor/Casein kinase I isoform epsilon (Homo sapiens); experiment: PROTAC activity at VHL/CK1 epsilon in HEK293 cells assessed as induction of degradation of CK1 epsilon at 3 uM measured after 1 hrs by Western blot analysis; type: cell-based
[12] = molecular target: T2, von Hippel-Lindau disease tumor suppressor/Casein kinase I isoform alpha (Homo sapiens); experiment: PROTAC activity at VHL/CK1 alpha in human MV4-11 cells assessed as induction of degradation of CK1 alpha by measuring maximum efficacy at 2.5 uM measured after 12 hrs by HiBit assay relative to control; type: cell-based
[13] = molecular target: T2, von Hippel-Lindau disease tumor suppressor/Casein kinase I isoform alpha (Homo sapiens); experiment: PROTAC activity at VHL/CK1 alpha in human MV4-11 cells assessed as induction of degradation of CK1 alpha by measuring maximum efficacy at 10 uM measured after 12 hrs by HiBit assay relative to control; type: cell-based
[14] = molecular target: T1, von Hippel-Lindau disease tumor suppressor/Casein kinase I isoform delta; experiment: PROTAC activity at VHL/CK1 delta in human MV4-11 cells assessed as induction of degradation of CK1 delta by measuring maximum efficacy at 0.625 to 10 uM measured after 9 hrs by HiBit assay relative to control; type: cell-based; conditions: dose 0.625-10 µM
Target sequence in this assay (P40337 whole entry, looked up, the tested form may be a part, canonical isoform): as the sequence (P40337 whole entry, looked up, the tested form may be a part, canonical isoform) above
Target sequence in this assay (P48730 whole entry, looked up, the tested form may be a part, canonical isoform): as the sequence (P48730 whole entry, looked up, the tested form may be a part, canonical isoform) above

[15] = molecular target: T1, von Hippel-Lindau disease tumor suppressor/Casein kinase I isoform delta; experiment: PROTAC activity at VHL/CK1 delta in human MDA-MB-231 cells assessed as induction of degradation of CK1 delta at 1 uM measured after 6 hrs; type: cell-based
Target sequence in this assay (P40337 whole entry, looked up, the tested form may be a part, canonical isoform): as the sequence (P40337 whole entry, looked up, the tested form may be a part, canonical isoform) above
Target sequence in this assay (P48730 whole entry, looked up, the tested form may be a part, canonical isoform): as the sequence (P48730 whole entry, looked up, the tested form may be a part, canonical isoform) above

[16] = molecular target: T3, von Hippel-Lindau disease tumor suppressor/Casein kinase I isoform epsilon (Homo sapiens); experiment: PROTAC activity at VHL/CK1 epsilon in human MDA-MB-231 cells assessed as induction of degradation of CK1 epsilon at 1 uM measured after 6 hrs; type: cell-based
[17] = molecular target: T1, von Hippel-Lindau disease tumor suppressor/Casein kinase I isoform delta; experiment: PROTAC activity at VHL/CK1 delta in human MDA-MB-231 cells assessed as induction of degradation of CK1 delta by measuring maximum efficacy at 1 uM measured after 6 hrs relative to control; type: cell-based
Target sequence in this assay (P40337 whole entry, looked up, the tested form may be a part, canonical isoform): as the sequence (P40337 whole entry, looked up, the tested form may be a part, canonical isoform) above
Target sequence in this assay (P48730 whole entry, looked up, the tested form may be a part, canonical isoform): as the sequence (P48730 whole entry, looked up, the tested form may be a part, canonical isoform) above

[18] = molecular target: T1, von Hippel-Lindau disease tumor suppressor/Casein kinase I isoform delta; experiment: PROTAC activity at VHL/CK1 delta in human U87 cells assessed as induction of degradation of CK1 delta by measuring maximum efficacy at 1 uM measured after 6 hrs relative to control; type: cell-based
[19] = molecular target: T1, von Hippel-Lindau disease tumor suppressor/Casein kinase I isoform delta; experiment: PROTAC activity at VHL/HiBit fused CK1 delta in human MV4-11 cells assessed as fold change at 10 uM measured after 6 hrs by Nano-Glo HiBit assay; type: cell-based
[20] = molecular target: T1, von Hippel-Lindau disease tumor suppressor/Casein kinase I isoform delta; experiment: PROTAC activity at VHL/HiBit fused CK1 delta in human MV4-11 cells assessed as fold change at 10 uM measured after 6 hrs in presence of 10 uM of MU1742 by Nano-Glo HiBit assay; type: cell-based
[21] = molecular target: T1, von Hippel-Lindau disease tumor suppressor/Casein kinase I isoform delta; experiment: PROTAC activity at VHL/HiBit fused CK1 delta in human MV4-11 cells assessed as fold change at 10 uM measured after 6 hrs in presence of 1 uM of MU1742 by Nano-Glo HiBit assay; type: cell-based
[22] = molecular target: T1, von Hippel-Lindau disease tumor suppressor/Casein kinase I isoform delta; experiment: PROTAC activity at VHL/HiBit fused CK1 delta in human MV4-11 cells assessed as fold change at 2.5 uM measured after 6 hrs in presence of MLN4924 by Nano-Glo HiBit assay; type: cell-based
[23] = molecular target: T1, von Hippel-Lindau disease tumor suppressor/Casein kinase I isoform delta; experiment: PROTAC activity at VHL/HiBit fused CK1 delta in human MV4-11 cells assessed as fold change at 2.5 uM measured after 6 hrs in presence of 10 uM of MU1742 by Nano-Glo HiBit assay; type: cell-based
[24] = molecular target: T1, von Hippel-Lindau disease tumor suppressor/Casein kinase I isoform delta; experiment: PROTAC activity at VHL/HiBit fused CK1 delta in human MV4-11 cells assessed as fold change at 2.5 uM measured after 6 hrs in presence of 1 uM of MU1742 by Nano-Glo HiBit assay; type: cell-based
[25] = molecular target: T1, von Hippel-Lindau disease tumor suppressor/Casein kinase I isoform delta; experiment: PROTAC activity at VHL/HiBit fused CK1 delta in human MV4-11 cells assessed as fold change at 0.63 uM measured after 6 hrs in presence of MLN4924 by Nano-Glo HiBit assay; type: cell-based
[26] = molecular target: T2, von Hippel-Lindau disease tumor suppressor/Casein kinase I isoform alpha (Homo sapiens); experiment: PROTAC activity at VHL/CK1 alpha in human HEK293 cells at 0.625 to 10 uM in presence of MU1742 by Western blot analysis; type: cell-based; conditions: dose 0.625-10 µM
[27] = molecular target: T3, von Hippel-Lindau disease tumor suppressor/Casein kinase I isoform epsilon (Homo sapiens); experiment: PROTAC activity at VHL/CK1 epsilon in human HEK293 cells at 0.625 to 10 uM in presence of MU1742 by Western blot analysis; type: cell-based; conditions: dose 0.625-10 µM
[28] = molecular target: T1, von Hippel-Lindau disease tumor suppressor/Casein kinase I isoform delta; experiment: PROTAC activity at VHL/CK1 delta in human HEK293 cells assessed as degradation of CK1-delta at 3 to 20 uM incubated overnight followed by compound washout and measured after 1 hr by Nano-Glo HiBiT assay; type: cell-based; conditions: dose 3-20 µM
[29] = molecular target: T1, von Hippel-Lindau disease tumor suppressor/Casein kinase I isoform delta; experiment: PROTAC activity at VHL/Hibit-fused CK1 delta in human MV4-11 cells assessed as half life at 2.5 uM measured upto 12 hrs in presence of cycloheximide by Nano-Glo HiBiT assay (reference value: 3 hrs); type: cell-based

Compound `Cc1ncsc1-c1ccc(CNC(=O)[C@H]2C[C@H](O)CN2C(=O)[C@H](NC(=O)CCCCCCC(=O)N2CCC(F)(Cn3cnc(-c4ccc(F)cn4)c3-c3ccnc4[nH]ccc34)CC2)C(C)(C)C)cc1` has an Emax [1] of 3.2%, an Emax [2] of 70.1% and a DC50 [3] of 550 nM. The Emax [4] was 35.1%, the Activity [5] was “Active” and the Activity [6] was “Active”. For the same compound, the Emax [7] was greater than 50%, the Emax [8] was greater than 50% and the Activity [9] was “Active”. For the same compound, the Activity [10] was “Not active; Compound Showed Weak Degradation”, the Activity [11] was “Active” and the Emax [12] was 20%. The Emax [13] was 50%, the Emax [14] was 75% and the Activity [15] was “Active”. For the same compound, the Activity [16] was “Active”, the Emax [17] was 75% and the Emax [18] was greater than 50%. It also gave a fold change (FC) [19] of 0.3, a fold change (FC) [20] of 1.02 and a fold change (FC) [21] of 0.67. It also gave a fold change (FC) [22] of 0.85, a fold change (FC) [23] of 1.19 and a fold change (FC) [24] of 0.97. For the same compound, the fold change (FC) [25] was 0.82, the Activity [26] was “inactive” and the Activity [27] was “inactive”. For the same compound, the Activity [28] was “inactive” and the T1/2 [29] was 40 min.
